Measurements: patent EP1272220B2, “FORMULATION FOR THE PREVENTION OF CARDIOVASCULAR DISEASE” (Wald, Nicholas John, priority 2000, dated 2001)
Marks after values point to notes of the source that are not given here.

How the values were obtained:
[1] = Expected reduction in risk of ischaemic heart disease and stroke, from analyses of cohort studies and randomised controlled trials; format: in vivo, persons
From the text: This combined estimate is based on the fact that the effects on the four different risk factors are unrelated and so the expected effects of changing each one will be independent of each other. This expectation is supported by two classes of evidence. […] For example the ratio of the risk of a disease event in persons with high blood pressure and the risk in persons with low blood pressure is similar, irrespective of the values of serum cholesterol and other risk factors. Second, some randomised clinical trials have used combinations of two of the drugs (for example beta blockers and aspirin) in patients with ischaemic heart disease and have shown that the effects are independent (that is, the relative risk in patients who took two drugs (compared with the risk in those who took none) was similar to the relative risk in persons taking one of the drugs multiplied by the relative risk in persons taking the other drug). Accordingly, the effect of the different drugs in combination in Table 3 has been calculated by multiplying the effects of each as shown in footnotes h and j. Table 3 - The constituent drugs in the proposed combined formulation, the cardiovascular risk factors that each alter, the amount by which each factor would be changed, and the resulting expected reduction in risk of ischaemic heart disease and stroke. [table]

[2] = Prevalence of adverse effects in randomised placebo controlled trials (treated minus control); format: in vivo, persons; conditions: preferred daily dose: Hydrochlorothiazide 12.5 mg, Atenolol 25 mg, Enalapril 5 mg, Aspirin 75 mg; for Prevalence of any adverse effect in randomised trials (treated minus control) / Prevalence of serious adverse effects (those that warranted withdrawal from randomised trial) (treated minus control): Atorvastatin 10 mg, Folic acid 0.8 mg
From the text: The dose of each medication has been chosen to maximise the ratio of benefit to hazard. It is recognised that some persons taking a combination of six drugs would develop adverse effects that were unacceptable. The adverse effects attributable to each of the component medications would be made clear to persons taking the combined formulation and alternative formulations omitting one or more of the component ingredients, with orwithout a substitute ingredient, would be available for persons unable to tolerate one component. […]

[3] = Folic acid 0.8 mg daily; cited from earlier work
[4] = Atorvastatin 10 mg daily; published placebo controlled trials (reference 200); cited from earlier work
[5] = Analysis of blood pressure reduction according to dose in 187 randomised placebo controlled trials of thiazide diuretics, beta-blockers and ACE inhibitors; format: in vivo, persons; conditions: Hydrochlorothiazide 12.5 mg + Atenolol 25 mg + Enalapril 5 mg daily, combined effect, half standard dose
From the text: For drugs used to lower blood pressure, the dose of an active principal is below the lower therapeutic dosage for the indication of the active principal. As used herein, the term "therapeutic dosage" is intended to referto the commonly used dose in clinical practice for the treatment of high levels of the risk factor or for the treatment of cardiovascular disease by the separate active principal. The most preferred doses for blood pressure lowering agents are half of the doses at the lower end of the therapeutic range recommended in the British National Formulary of March 2000. This is in order to maximise the therapeutic benefit of the combination of agents, while minimising the risks of adverse effects of the individual agents. […] Most preferably, the dose of a blood pressure lowering agent is about half the recommended dose (or, where a range of doses is given, half of the recommended dose at the lower end of the recommended therapeutic range) for the blood pressure lowering agent.
The corresponding reductions in incidence of ischaemic heart disease and stroke are those to be expected from the blood pressure reductions, from published analyses of cohort studies and randomised controlled trials of blood pressure and ischaemic heart disease and stroke (references 1, 5).

[6] = randomised trials; platelet function not measured; cited from earlier work
[7] = single drug at preferred daily dose: Atorvastatin 10 mg, Aspirin 75 mg (14 trials of 50-100 mg daily), Folic acid 0.8 mg
[8] = Hydrochlorothiazide 12.5 mg + Atenolol 25 mg + Enalapril 5 mg daily combined, expected from blood pressure reduction of 12 mmHg diastolic

SMILES	Expected reduction in risk of: ischaemic heart disease [1, 7]	Prevalence of any adverse effect in randomised trials (treated minus control) [2]	Prevalence of serious adverse effects (those that warranted withdrawal from randomised trial) (treated minus control) [2]	Associated physiological variable (reduction produced by drug): Plasma/serum homocysteine [3]	Expected reduction in risk of: stroke [1, 7]	Associated physiological variable (reduction produced by drug): Serum cholesterol [4]	Associated physiological variable (reduction produced by drug): Blood pressure, diastolic [5]	Expected reduction in risk of: ischaemic heart disease [1, 8] [%^b]	Expected reduction in risk of: stroke [1, 8] [%^b]	Commonest adverse effects [2]	incidence of heart attacks and stroke [6]
Nc1nc2ncc(CNc3ccc(C(=O)N[C@@H](CCC(=O)O)C(=O)O)cc3)nc2c(=O)[nH]1 [Folic acid]	15%^g	<0.1%	<0.1%	Plasma/serum homocysteine (3 µmol/I)^f							
CC(C)c1c(C(=O)Nc2ccccc2)c(-c2ccccc2)c(-c2ccc(F)cc2)n1CC[C@@H](O)C[C@@H](O)CC(=O)O [Atorvastatin]	61 %^d	0.1%	<0.1%		50%^d	Serum cholesterol (1.8 mmol/I)°					
NS(=O)(=O)c1cc2c(cc1Cl)NCNS2(=O)=O [Hydrochlorothiazide]		1.4%^a	0.1%^a				(12 mmHg diastolic)^a	43	63	dizziness, impotence, nausea	
CCOC(=O)[C@H](CCc1ccccc1)N[C@@H](C)C(=O)N1CCC[C@H]1C(=O)O [Enalapril]		2.1%^a	0.2%^a				(12 mmHg diastolic)^a	43	63	cough	
CC(C)NCC(O)COc1ccc(CC(N)=O)cc1 (stereo not drawn) [Atenolol]		5.6%^a	0.9%^a				(12 mmHg diastolic)^a	43	63	cold extremities, fatigue, dizziness	
CC(=O)Oc1ccccc1C(=O)O [Aspirin]	38%^e	1.8%^b	0.7%^b (mainly rectal or urinary bleeding)		15%^e					bleeding, indigestion	reduces the incidence of heart attacks and stroke in both high risk and low risk persons
